This experiment relates to Elongator complex protein 1 (ELP1, also referred to as IKBKAP). Kind of experiment: IKBKAP-HTRF assay (IKBKAP protein in lysates of FD patient-derived fibroblasts). Format: cell-based, human. The conditions noted are these: 48 hours incubation, 7-point concentration curve. The gist of the method:
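Sandwich HTRF with two labelled anti-IKAP antibodies (overnight, 4 °C) measured IKBKAP in lysates of FD patient fibroblasts. Cells were exposed to compound for 48 h at 37 °C (7-point curve, 3.16-fold steps, triplicates). EC2x is the dose doubling IKBKAP versus DMSO control; MFI is sample ΔF divided by vehicle ΔF.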
(TR-FRET usually uses a lanthanide donor and a delayed reading to cut background.)

Results on 15 molecules are retold here after patent US12384797B2, “Thioeno[3,2-b] pyridin-7-amine compounds for treating familial dysautonomia” (PTC THERAPEUTICS, INC., priority 2019, dated 2025).

Turning to `COc1c(C[C@H](C)N)sc2c(NCc3ccco3)cc(Cl)nc12` [Compound 136, 2-[(2S)-2-aminopropyl]-5-chloro-N-[(furan-2-yl)methyl]-3-methoxythieno[3,2-b]pyridin-7-amine], the “EC2x for IKBKAP protein expression (concentration producing two times the amount of IKBKAP protein vs DMSO vehicle control)” value is “***** (≤0.005 μM is indicated by five stars (*****))” and the “MFI (maximum fold increase in IKBKAP protein abundance relative to the vehicle control)” value is “***** (>4.9 is indicated by five stars (*****))”.

With `COc1csc2c(NCc3ccco3)cc(Cl)nc12` [Compound 137, 5-chloro-N-[(furan-2-yl)methyl]-3-methoxythieno[3,2-b]pyridin-7-amine], the “EC2x for IKBKAP protein expression (concentration producing two times the amount of IKBKAP protein vs DMSO vehicle control)” value is “*** (between >0.02 μM and ≤0.5 μM is indicated by three stars (***))”; the “MFI (maximum fold increase in IKBKAP protein abundance relative to the vehicle control)” value is “***** (>4.9 is indicated by five stars (*****))”.

`Oc1csc2c(NCc3cccs3)cc(Cl)nc12` [Compound 138, 5-chloro-7-{[(thiophen-2-yl)methyl]amino}thieno[3,2-b]pyridin-3-ol]: the “EC2x for IKBKAP protein expression (concentration producing two times the amount of IKBKAP protein vs DMSO vehicle control)” value is “*** (between >0.02 μM and ≤0.5 μM is indicated by three stars (***))”; the “MFI (maximum fold increase in IKBKAP protein abundance relative to the vehicle control)” value was “** (between >1.9 and ≤2.9 is indicated by two stars (**))”.

With `C[C@H](N)Cc1sc2c(NCc3cccs3)cc(Cl)nc2c1OC(F)F` [Compound 139, 2-[(2S)-2-aminopropyl]-5-chloro-3-(difluoromethoxy)-N-[(thiophen-2-yl)methyl]thieno[3,2-b]pyridin-7-amine], the “EC2x for IKBKAP protein expression (concentration producing two times the amount of IKBKAP protein vs DMSO vehicle control)” value is listed as “***** (≤0.005 μM is indicated by five stars (*****))”; the “MFI (maximum fold increase in IKBKAP protein abundance relative to the vehicle control)” value was “**** (between >3.9 and ≤4.9 is indicated by four stars (****))”.

With `Cc1c(C[C@@H](N)C(=O)Nc2ccncc2)sc2c(NCc3ccco3)cc(Cl)nc12` [Compound 140, 3-(5-chloro-7-{[(furan-2-yl)methyl]amino}-3-methylthieno[3,2-b]pyridin-2-yl)-N-pyridin-4-yl-D-alaninamide], the “EC2x for IKBKAP protein expression (concentration producing two times the amount of IKBKAP protein vs DMSO vehicle control)” value is given as “***** (≤0.005 μM is indicated by five stars (*****))” and the “MFI (maximum fold increase in IKBKAP protein abundance relative to the vehicle control)” value is on record as “***** (>4.9 is indicated by five stars (*****))”.

Turning to `Cc1c(C[C@@H](N)C(=O)N(C)c2ccccc2)sc2c(NCc3ccco3)cc(Cl)nc12` [Compound 141, 3-(5-chloro-7-{[(furan-2-yl)methyl]amino}-3-methylthieno[3,2-b]pyridin-2-yl)-N-methyl-N-phenyl-D-alaninamide], the “EC2x for IKBKAP protein expression (concentration producing two times the amount of IKBKAP protein vs DMSO vehicle control)” value was “*** (between >0.02 μM and ≤0.5 μM is indicated by three stars (***))”; the “MFI (maximum fold increase in IKBKAP protein abundance relative to the vehicle control)” value is “**** (between >3.9 and ≤4.9 is indicated by four stars (****))”.

`Cc1ccc(NC(=O)[C@H](N)Cc2sc3c(NCc4ccco4)cc(Cl)nc3c2C)cc1` [Compound 142, 3-(5-chloro-7-{[(furan-2-yl)methyl]amino}-3-methylthieno[3,2-b]pyridin-2-yl)-N-(4-methylphenyl)-D-alaninamide]: the “EC2x for IKBKAP protein expression (concentration producing two times the amount of IKBKAP protein vs DMSO vehicle control)” value is “**** (between >0.005 μM and ≤0.02 μM is indicated by four stars (****))”; the “MFI (maximum fold increase in IKBKAP protein abundance relative to the vehicle control)” value is “***** (>4.9 is indicated by five stars (*****))”.

With `Cc1c(C[C@@H](N)C(=O)Nc2cccc(Cl)c2)sc2c(NCc3ccco3)cc(Cl)nc12` [Compound 143, 3-(5-chloro-7-{[(furan-2-yl)methyl]amino}-3-methylthieno[3,2-b]pyridin-2-yl)-N-(3-chlorophenyl)-D-alaninamide], the “EC2x for IKBKAP protein expression (concentration producing two times the amount of IKBKAP protein vs DMSO vehicle control)” value was “*** (between >0.02 μM and ≤0.5 μM is indicated by three stars (***))”; the “MFI (maximum fold increase in IKBKAP protein abundance relative to the vehicle control)” value was “***** (>4.9 is indicated by five stars (*****))”.

As to `COc1cccc(NC(=O)[C@H](N)Cc2sc3c(NCc4ccco4)cc(Cl)nc3c2C)c1` [Compound 144, 3-(5-chloro-7-{[(furan-2-yl)methyl]amino}-3-methylthieno[3,2-b]pyridin-2-yl)-N-(3-methoxyphenyl)-D-alaninamide], the “EC2x for IKBKAP protein expression (concentration producing two times the amount of IKBKAP protein vs DMSO vehicle control)” value is “**** (between >0.005 μM and ≤0.02 μM is indicated by four stars (****))”; the “MFI (maximum fold increase in IKBKAP protein abundance relative to the vehicle control)” value is reported as “***** (>4.9 is indicated by five stars (*****))”.

As for `Cc1c(C[C@@H](N)C(=O)Nc2ccnn2C)sc2c(NCc3ccco3)cc(Cl)nc12` [Compound 145, 3-(5-chloro-7-{[(furan-2-yl)methyl]amino}-3-methylthieno[3,2-b]pyridin-2-yl)-N-(1-methyl-1H-pyrazol-5-yl)-D-alaninamide], the “EC2x for IKBKAP protein expression (concentration producing two times the amount of IKBKAP protein vs DMSO vehicle control)” value is “*** (between >0.02 μM and ≤0.5 μM is indicated by three stars (***))”; the “MFI (maximum fold increase in IKBKAP protein abundance relative to the vehicle control)” value is “***** (>4.9 is indicated by five stars (*****))”.

Regarding `Cc1c(C(C)CO)sc2c(NCc3ccco3)cc(Cl)nc12` (stereo not drawn) [Compound 146, 2-(5-chloro-7-{[(furan-2-yl)methyl]amino}-3-methylthieno[3,2-b]pyridin-2-yl)propan-1-ol], the “EC2x for IKBKAP protein expression (concentration producing two times the amount of IKBKAP protein vs DMSO vehicle control)” value was “* (An EC2x>1 μM is indicated by one star (*))” and the “MFI (maximum fold increase in IKBKAP protein abundance relative to the vehicle control)” value is recorded as “* (An MFI≤1.9 is indicated by one star (*))”.

Turning to `Cc1c(C(C)(O)CO)sc2c(NCc3ccco3)cc(Cl)nc12` (stereo not drawn) [Compound 147, 2-(5-chloro-7-{[(furan-2-yl)methyl]amino}-3-methylthieno[3,2-b]pyridin-2-yl)propane-1,2-diol], the “EC2x for IKBKAP protein expression (concentration producing two times the amount of IKBKAP protein vs DMSO vehicle control)” value was “*** (between >0.02 μM and ≤0.5 μM is indicated by three stars (***))”; the “MFI (maximum fold increase in IKBKAP protein abundance relative to the vehicle control)” value was “** (between >1.9 and ≤2.9 is indicated by two stars (**))”.

As for `Cc1c(C(C)CN)sc2c(NCc3ccco3)cc(Cl)nc12` (stereo not drawn) [Compound 148, 2-(1-aminopropan-2-yl)-5-chloro-N-[(furan-2-yl)methyl]-3-methylthieno[3,2-b]pyridin-7-amine], the “EC2x for IKBKAP protein expression (concentration producing two times the amount of IKBKAP protein vs DMSO vehicle control)” value is recorded as “***** (≤0.005 μM is indicated by five stars (*****))”; the “MFI (maximum fold increase in IKBKAP protein abundance relative to the vehicle control)” value is “**** (between >3.9 and ≤4.9 is indicated by four stars (****))”.

For `FC(F)Oc1csc2c(NCc3cccs3)cc(Cl)nc12` [Compound 149, 5-chloro-3-(difluoromethoxy)-N-[(thiophen-2-yl)methyl]thieno[3,2-b]pyridin-7-amine], the “EC2x for IKBKAP protein expression (concentration producing two times the amount of IKBKAP protein vs DMSO vehicle control)” value was “*** (between >0.02 μM and ≤0.5 μM is indicated by three stars (***))”; the “MFI (maximum fold increase in IKBKAP protein abundance relative to the vehicle control)” value is “**** (between >3.9 and ≤4.9 is indicated by four stars (****))”.

In the case of `Cc1c([C@H](C)[C@H](C)N)sc2c(NCc3ccco3)cc(Cl)nc12` [Compound 150, 2-[(2R,3S)-3-aminobutan-2-yl]-5-chloro-N-[(furan-2-yl)methyl]-3-methylthieno[3,2-b]pyridin-7-amine], the “EC2x for IKBKAP protein expression (concentration producing two times the amount of IKBKAP protein vs DMSO vehicle control)” value is on record as “***** (≤0.005 μM is indicated by five stars (*****))” and the “MFI (maximum fold increase in IKBKAP protein abundance relative to the vehicle control)” value is listed as “***** (>4.9 is indicated by five stars (*****))”.
